According to patent publication US4175125A, “Method for treating methicillin resistant staphylococcus aureus” (Eli Lilly and Company, priority 1978, dated 1979):
Counter-ions that a name gives are not always drawn. Like-named read-outs stand apart in the source and are kept apart here.

Experiments:
[1] = test system: methicillin-resistant Staphylococcus aureus; assay: Gradient plate test (MIC) against methicillin-resistant Staphylococcus aureus; format: cell-based; conditions: Staphylococcus aureus, read-out: minimum inhibitory concentration (MIC)
Method: The method used is essentially that described by Bryson and Szybalski in 1952 (Science 116:45-46). The inoculum treatment method used for penicillin resistant Staphylococci was reported by Godzeski et al in Antimicrobial Agents and Chemotherapy, May, 1969, pp. 547-554.
A standard Falcon square plastic petri dish is used. A layer of agar (10 ml.) is poured into one of the square dishes, the dish tipped 5 mm. off the horizontal, and the agar layer allowed to harden in this position. This bottom layer of agar contains the antibiotic, the serum, and/or other material to be tested. The medium is Difco Penassay Agar containing 2 percent agar. We routinely used 4 ml. of human or horse serum for "serum-inactivation" testing. […] Therefore, serum is routinely added only to the bottom layer.
After the bottom, slanted layer of agar medium has hardened, the plate is placed flat and another 10 ml. of medium added and allowed to harden.
The inoculum of resistant Staphylococci, as described, is prepared by diluting the water suspension 1/50 in 0.25 percent agar in sterile water or saline. For Gram negative organisms, an overnight broth culture is diluted 1/50 in the 0.25 percent agar-water. This dilution is thoroughly shaken to evenly suspend the bacteria. To streak the plate, we use a 1 ml. pipet containing an aliquot of the final […] agar dilution. After a little practice, a smooth even stroke of inoculum can be laid down very rapidly. The trick is in the smoothness of the streak--it must be accomplished uniformly and quickly.
After 24 hours incubation at 35°-37° C. the plates are read by simply measuring the length of bacterial growth as a percentage of the entire streak distance which is then converted to the percent of antibiotic concentration in the plate.
Average values of duplicate measurements are calculated and the M.I.C.'s reported are average of 2 streaks on the plate and from 2 to 3 duplicate plates. Eight streaks can be easily placed on each plate. If sharp end points are not obtained, the middle concentration between the beginning of inhibition of the streak to the end of growth is measured. The concentration of the antibiotic under examination is varied from plate to plate in a series as follows: […]
This method of screening penicillins and cephalosporins is quite satisfactory. Control plates containing penicillin and staphcillin or prostaphlin, or other control antibiotic, are used daily for the resistant staphylococcal activity screen. The gradient plate method has shown differences between antibiotics that were not apparent by any other methods of screening. […] We believe that the gradient plate screen is more sensitive to small differences between related antibiotics than other methods and pictures of the plates can provide a permanent record. The method also lends itself readily to modification of specific purposes--e.g., cross gradients.
The compounds listed below are examples of compounds useful in the method of this invention. After the compound name there is given in parentheses, where tested, the minimum inhibitory concentrations (MIC) in micrograms per milliliter (μg/ml) for the compound in the above described gradient plate procedure test against methicillin-resistant Staphylococcus aureus, (in the absence of blood serum/in the presence of 20 percent blood serum).
and pharmaceutically acceptable salts thereof. The abbreviation "s.z." means skip zones.

[2] = test system: Streptococcus pyogenes, strain C203; assay: Streptococcus pyogenes infection in mice, median effective dose (Example 12); format: in vivo; conditions: infecting challenge 27.9 (XLD50), read-out: ED50
Method: The compound 7-[2"-(3"-chloro-4"-fluorophenyltio)acetamido]cephalosporanic acid, prepared as described in Example 8, was tested for antibiotic effectiveness against Streptococcus pyogenes, strain C203 infections in mice, and is compared with the effectiveness of cephaloridine in the same test. Experience has shown with other compounds, some of which are now commercial antibiotics, that a compound effective against Streptococcus pyrogenes, strain C203 in this test will be effective against Staphylococcus aureus strains in clinical use. This is intended as further evidence that the compounds of the method of this invention should be effective antibiotics in clinical situations.
In this test, a standard in vivo test method described by Wick, W. E., F. Streightoff, and D. H. Holmes. 1961, in J. Bacteriol., 81: 233-235 was used. The oral and subcutaneous median effective doses (ED50) necessary to cure 50 percent of the mice were calculated according to the method of Reed and Muench (Reed, L. J., and H. Meunch. 1938. Am. J. Hyg. 27: 493-497) The results were as follows: […]

- MIC ([1]; in the absence of blood serum): 9.3 µg/mL
- MIC ([1]; in the presence of 20 percent blood serum): 12.2 µg/mL
SMILES: CC(=O)OCC1=C(C(=O)O)N2C(=O)C(NC(=O)CSc3ccc(F)c(Cl)c3)C2SC1 (stereo not shown) [Example 8, 7-(3'-chloro-4-fluorophenylthioacetamido)cephalosporanic acid, sodium salt]
- ED50 ([2]; C203, oral): 7 mg/kg
- ED50 ([2]; C203, sc, subcut): < 0.21 mg/kg
